Test results taken from US10934276B2, “Positive allosteric modulators of the muscarinic acetylcholine receptor M4” (Vanderbilt University, priority 2016, dated 2021).

Legend:
Human M4 = molecular target: T1, Human M4 (Homo sapiens, UniProt P08173); assay: mAChR M4 cell-based functional assay (calcium flux, potentiation of EC20 acetylcholine response in CHO-K1 hM4-Gqi5 cells); conditions: for Emax at 30 µM: CHO-K1, % ACh maximum at 30 μM, human M4; for EC50: positive allosteric modulator mode, EC20 acetylcholine, CHO-K1 cells with human M4 and Gqi5
T1 construct: expressed in transfected cells; host or cells: CHO-K1 (ATCC), stably expressing hM4 and Gqi5
T1 sequence (P08173 1-479): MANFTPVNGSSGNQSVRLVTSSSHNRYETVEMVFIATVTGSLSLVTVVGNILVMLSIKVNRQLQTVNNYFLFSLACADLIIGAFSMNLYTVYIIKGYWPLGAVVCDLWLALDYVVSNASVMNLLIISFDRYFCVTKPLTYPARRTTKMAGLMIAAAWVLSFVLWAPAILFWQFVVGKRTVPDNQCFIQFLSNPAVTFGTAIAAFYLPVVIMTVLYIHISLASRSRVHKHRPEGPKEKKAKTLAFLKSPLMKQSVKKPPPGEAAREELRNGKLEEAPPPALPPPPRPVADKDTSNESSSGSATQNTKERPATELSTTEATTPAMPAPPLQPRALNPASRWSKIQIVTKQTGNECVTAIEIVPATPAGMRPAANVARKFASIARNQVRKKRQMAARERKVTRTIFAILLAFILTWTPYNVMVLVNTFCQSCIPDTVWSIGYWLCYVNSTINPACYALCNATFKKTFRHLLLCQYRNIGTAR
Protocol: Human M4 cDNA, along with the chimeric G protein Gqi5, were transfected into Chinese hamster ovary (CHO—K1) cells purchased from the American Type Culture Collection using Lipofectamine2000. hM4-Gqi5 cells were grown in Ham's F-12 medium containing 10% heat-inactivated fetal bovine serum (FBS), 20 mM HEPES, 50 μg/mL G418 sulfate, and 500 μg/mL Hygromycin B. rM4-Gqi5 cells were grown in DMEM containing 10% heat-inactivated FBS, 20 mM HEPES, 400 μg/mL G418 sulfate, and 500 μg/mL Hygromycin B.
For high throughput measurement of agonist-evoked increases in intracellular calcium, CHO—K1 cells stably expressing muscarinic receptors were plated in growth medium lacking G418 and hygromycin at 15,000 cells/20 μL/well in Greiner 384-well black-walled, tissue culture (TC)-treated, clear-bottom plates (VWR). Cells were incubated overnight at 37° C. and 5% CO2. The next day, cells were washed using an ELX 405 (BioTek) with assay buffer; the final volume was then aspirated to 20 μL. Next, 20 μL of a 2.3 μM stock of Fluo-4/acetoxymethyl ester (Invitrogen, Carlsbad, Calif.), prepared as a 2.3 mM stock in DMSO and mixed in a 1:1 ratio with 10% (w/v) Pluronic F-127 and diluted in assay buffer, was added to the wells and the cell plates were incubated for 50 min at 37° C. and 5% CO2. Dye was removed by washing with the ELX 405 and the final volume was aspirated to 20 μL. Compound master plates were formatted in an 11 point concentration-response curve (CRC) format (1:3 dilutions) in 100% DMSO with a starting concentration of 10 mM using a BRAVO liquid handler (Agilent). Test compound CRCs were then transferred to daughter plates (240 nL) using the Echo acoustic plate reformatter (Labcyte, Sunnyvale, Calif.) and then diluted into assay buffer (40 μL) to a 2× stock using a Thermo Fisher Combi (Thermo Fisher Scientific, Waltham, Mass.).
Calcium flux was measured using the Functional Drug Screening System (FDSS) 6000 or 7000 (Hamamatsu Corporation, Tokyo, Japan) as an increase in the fluorescent static ratio. Compounds were applied to cells (20 μL, 2×) using the automated system of the FDSS at 2-4 seconds into the protocol and the data were collected at 1 Hz. At 144 seconds, 10 μL of an EC20 concentration of the muscarinic receptor agonist acetylcholine was added (5×), followed by the addition of 12 μL of an EC80 concentration of acetylcholine at the 230 second time point (5×). Agonist activity was analyzed as a concentration-dependent increase in calcium mobilization upon compound addition. Positive allosteric modulator activity was analyzed as a concentration-dependent increase in the EC20 acetylcholine response. With the acetylcholine EC20 set as baseline, the test compound EC50 is determined as the concentration that produces an increase above baseline of 50% of the maximum increase in acetylcholine response elicted by the test compound. Antagonist activity was analyzed as a concentration-dependent decrease in the EC80 acetylcholine response. Concentration-response curves were generated using a four-parameter logistical equation in XLFit curve fitting software (IDBS, Bridgewater, N.J.) for Excel (Microsoft, Redmond, Wash.) or Prism (GraphPad Software, Inc., San Diego, Calif.).
Compounds were synthesized as described above. Activity (EC50 and Emax) was determined in the mAChR M4 cell-based functional assay as described above and the data are shown in Table 3. The compound numbers correspond to the compound numbers used in Examples 2-4 and Tables 1 and 2.

[1] = patients treated with AChE inhibitors such as tacrine; cited from earlier work

SMILES | Emax at 30 µM (Human M4) [%] | EC50 (Human M4) [µM] | patients with elevated liver transaminases (hepatotoxicity) [1]
Cc1nnc2ccc(C(=O)NC3CN(c4ncc(C5CC5)cc4Cl)C3)cc2c1C [Compound 27, N-[1-(3-chloro-5-cyclopropyl-2-pyridyl)azetidin-3-yl]-3,4-dimethyl-cinnoline-6-carboxamide] | 77.2 | 1.39 | 
Cc1nnc2ccc(C(=O)NC3CN(c4ncc(C(F)(F)F)cc4Cl)C3)cc2c1C [Compound 28, N-[1-[3-chloro-5-(trifluoromethyl)-2-pyridyl]azetidin-3-yl]-3,4-dimethyl-cinnoline-6-carboxamide] | 75.7 | 2.63 | 
Cc1nnc2ccc(C(=O)NC3CN(c4ncc(C#N)cc4Cl)C3)cc2c1C [Compound 29, N-[1-(3-chloro-5-cyano-2-pyridyl)azetidin-3-yl]-3,4-dimethyl-cinnoline-6-carboxamide] | 71.6 | 0.3 | 
Cc1nnc2ccc(C(=O)NC3CN(c4ccc(OC(F)F)nc4)C3)cc2c1C [Compound 31, N-[1-[6-(difluoromethoxy)-3-pyridyl]azetidin-3-yl]-3,4-dimethyl-cinnoline-6-carboxamide] | 80.8 | 1.46 | 
Cc1nnc2ccc(C(=O)NC3CN(c4cccc(Cl)n4)C3)cc2c1C [Compound 32, N-[1-(6-chloro-2-pyridyl)azetidin-3-yl]-3,4-dimethyl-cinnoline-6-carboxamide] | 77.2 | 1.32 | 
Cc1nnc2ccc(C(=O)NC3CN(c4ncccc4Cl)C3)cc2c1C [Compound 35, N-[1-(3-chloro-2-pyridyl)azetidin-3-yl]-3,4-dimethyl-cinnoline-6-carboxamide] | 83.7 | 0.95 | 
Cc1nnc2ccc(C(=O)NC3CN(c4ccnc(C(F)(F)F)c4)C3)cc2c1C [Compound 37, 3,4-dimethyl-N-[1-[2-(trifluoromethyl)-4-pyridyl]azetidin-3-yl]cinnoline-6-carboxamide] | 88 | 0.75 | 
Cc1nnc2ccc(C(=O)NC3CN(c4cccc(C(F)(F)F)n4)C3)cc2c1C [Compound 38, 3,4-dimethyl-N-[1-[6-(trifluoromethyl)-2-pyridyl]azetidin-3-yl]cinnoline-6-carboxamide] | 64.2 | 3.36 | 
Nc1c2c(nc3ccccc13)CCCC2 [tacrine] |  |  | about 30%

Second part, led by results:

Emax at 30 µM (Human M4) [%] | EC50 (Human M4) [µM] | SMILES | patients with elevated liver transaminases (hepatotoxicity) [1]
91.6 | 0.12 | Cc1nnc2ccc(C(=O)NC3CN(c4cc(Cl)ncc4Cl)C3)cc2c1C [Compound 30, N-[1-(2,5-dichloro-4-pyridyl)azetidin-3-yl]-3,4-dimethyl-cinnoline-6-carboxamide] | 
84.5 | 0.67 | Cc1nnc2ccc(C(=O)NC3CN(c4cccc(F)n4)C3)cc2c1C [Compound 33, N-[1-(6-fluoro-2-pyridyl)azetidin-3-yl]-3,4-dimethyl-cinnoline-6-carboxamide] | 
83.4 | 1.22 | Cc1nnc2ccc(C(=O)NC3CN(c4ncccc4F)C3)cc2c1C [Compound 34, N-[1-(3-fluoro-2-pyridyl)azetidin-3-yl]-3,4-dimethyl-cinnoline-6-carboxamide] | 
82 | 0.65 | Cc1nnc2ccc(C(=O)NC3CN(c4ncc(Cl)cc4F)C3)cc2c1C [Compound 36, N-[1-(5-chloro-3-fluoro-2-pyridyl)azetidin-3-yl]-3,4-dimethyl-cinnoline-6-carboxamide] | 
82.6 | > 10 | Cc1nnc2ccc(C(=O)NC3CC3)cc2c1C [Compound 39, N-cyclopropyl-3,4-dimethyl-cinnoline-6-carboxamide] | 
59.3 | > 10 | Cc1nnc2ccc(C(=O)NC3CC(F)C3)cc2c1C (stereo not shown) [Compound 40, N-(3-fluorocyclobutyl)-3,4-dimethyl-cinnoline-6-carboxamide] | 
53.5 | > 10 | Cc1nnc2ccc(C(=O)NC3CCCC3)cc2c1C [Compound 41, N-cyclopentyl-3,4-dimethyl-cinnoline-6-carboxamide] | 
